Source: patent US4293483A, “Derivatives of A-30912A nucleus” (priority 1980, dated 1981)
Like-named read-outs stand apart in the source and are kept apart here. Numbered stars: 1 amine (or outer) side, 2 acyl side, 3 side chain; on linkers, the order of the positions; unused ones are H or OH. Bridge positions count the residues as written; N and C are the ends. Square brackets hold non-standard residues; d marks the D form. Peptide text beside a SMILES is read from it. * marks the point of attachment. Orn(4R-OH,5R-OH) = O=C([C@H](C[C@@H](O)[C@@H](O)N[*:3])N[*:1])[*:2]; hTyr(3S-OH,4S-OH) = N[C@H](C(=O)O)[C@H](O)[C@@H](O)c1ccc(O)cc1; Pro(3S-OH,4S-Me) = C[C@H]1CN[C@H](C(=O)O)[C@H]1O; 4Abz(2-Cl) = O=C(c1ccc(N[*:1])cc1Cl)[*:2]; X5 = O=C(c1cc(Cl)cc(N[*:1])c1Cl)[*:2]; X9 = COc1ccc(C(=O)[*:2])cc1N[*:1]; Hyp = O=C(O)[C@@H]1C[C@@H](O)CN1; X4 = Cc1cc(C(=O)[*:2])ccc1N[*:1]; X7 = Cc1ccc(C(=O)[*:2])cc1N[*:1]; X8 = O=C(c1ccc(N[*:1])cc1O)[*:2]; Lauroyl = CCCCCCCCCCCC(=O)*; Decanoyl = CCCCCCCCCC(=O)*; 3Abz = Nc1cccc(C(=O)O)c1; 4Abz = Nc1ccc(C(=O)O)cc1; Heptanoyl = CCCCCCC(=O)*; Octanoyl = CCCCCCCC(=O)*; Aun = NCCCCCCCCCCC(=O)O

Tests used:
[1] = mouse, in vivo, 416 mg/kg, 240 min
Procedure: In this test, mice are gavaged with a dose of 416 mg/kg of the test compound suspended in 33% PEG 400-water. At time intervals, blood samples are taken from the orbital sinus and are assayed for antibiotic activity as follows: A 7 mm. disc containing 20 μl of whole blood is placed on agar seeded with Aspergillus montevidensis A35137. After 40 hours incubation at 30° C. zones of inhibition from the blood samples are compared to a standard obtained from the test compound, and the amount of compound in the blood sample is calculated.

[2] = system: Trychophyton mentagrophytes #6; experiment: Agar plate disc diffusion test, MIC per disc; format: cell-based; conditions: 0.01M sodium borate, pH 7.5, 24 hours at 30° C.
Procedure: (§1) In Table 5, activity is measured by the minimal inhibitory concentration (MIC) of the substance (μg/disc) required to inhibit growth of the test organism.
(§2) *Compounds were suspended in 0.01M sodium borate solution, pH 7.5.
(§3) compounds were tested at 20 μg/disc at top level and at twofold
(§4) dilutions until end points were reached.

[3] = system: Saccharomyces pastorianus X-52; experiment: Agar plate disc diffusion test, zone of inhibition; format: cell-based; conditions: Saccharomyces pastorianus, X52, 48 h, Saccharomyces pastorianus X-52; 1 mg/ml suspension in methanol, 7 mm disc; 24-48 hours at 25-37° C.; read-out: Size of Zone of Inhibition
Procedure: (§5) ^(a) Compounds were tested as suspension in methanol.
(§6) were tested at a concentration of 1 mg/ml by a dipping 7mm disc into the
(§7) suspension and placing it on the agar surface. Incubation: 24-48 hours at

Candida albicans A-26 [4] = experiment: Agar plate disc diffusion test, zone of inhibition; format: cell-based; conditions: 7 mm disc; for Size of Zone of Inhibition: 1 mg/ml suspension in methanol, 24-48 hours at 25-37° C., no regrowth mark
Procedure: as §5, §6, §7

Candida albicans A-26 [5] = experiment: Therapeutic activity against Candida albicans A-26 infection in mice; format: in vivo; conditions: A26, sc
Procedure: The results of in vivo tests to evaluate the effectiveness of the compound of Examples 61-81, 86 and 88 against an infection caused by Candida albicans A-26 in mice are given in Table 7, where activity is measured by the ED50 value (the dose in mg/kg. required to cure 50% of the test animals). Where an ED50 value was not obtained, activity is indicated by the lowest dose at which a significant anti-fungal effect is observed. In this test, groups of male albino mice (specific pathogen free), weighing 18 to 20 grams, are infected intravenously with Candida albicans A-26. The animals are X-irradiated 24 hours prior to infection at about 50 roentgens per minute for 8 minutes (400 total dose) to reduce immune responses to the infecting organism. At 0, 4, and 24 hours post infection each group of mice is given graded doses subcutaneously of the test compound as a suspension in 33% polyethylene glycol-water. The day of death for each animal is recorded.
*Dosage Schedule: 40, 20, 15, and 10 mg/kg. Dosages given 0, 4, and 24
hours post injection as suspension of test compound in 30% PEGH2 O.
Number of mice receiving test compounds at each dosage level: 6 mice per
group. Number of mice in control (untreated) group: 10 mice per group.
**As measured by increase in survival time of treated animals versus
control, calculated by method of Reed V. Mueuch, American J. Hygiene, 493

Candida albicans A-26 [6] = experiment: Agar plate disc diffusion test, MIC per disc; format: cell-based; conditions: 0.01M sodium borate, pH 7.5, 24 hours at 30° C.
Procedure: as §1, §2, §3, §4

[7] = system: Trichophyton mentagrophytes; experiment: Agar plate disc diffusion test, zone of inhibition; format: cell-based; conditions: 7 mm disc
Procedure: as §5, §6, §7

Neurospora Crassa 846 = experiment: Agar plate disc diffusion test, zone of inhibition; format: cell-based; conditions: Neurospora crassa, 7 mm disc
Procedure: as §5, §6, §7

[8] = subcutaneous at 0, 4 and 24 hours post infection, dose to cure 50% of test animals, by increase in survival time, read-out: ED50
[9] = subcutaneous at 0, 4 and 24 hours post infection, lowest dose with significant anti-fungal effect, read-out: Lowest Active Dose
[10] = 1 mg/ml, * measurable zone of inhibition with regrowth of organism around disc, read-out: Size of Zone of Inhibition (*)
[11] = CRASSA846, Neurospora Crassa 846, 1 mg/ml, * measurable zone of inhibition with regrowth of organism around disc, read-out: Size of Zone of Inhibition (*)
[12] = read-out: Lowest Active Dose, subcutaneous at 0, 4 and 24 hours post infection, lowest dose with significant anti-fungal effect

Row | SMILES | Blood Levels [1] | MIC [2] | zone of inhibition at 1000 µg/mL [3] | Size of Zone of Inhibition (Candida albicans A-26 [4]) | ED50 (Candida albicans A-26 [5]; [8]) | minimal effective dose (Candida albicans A-26 [5]; [9]) | MIC (Candida albicans A-26 [6]) | zone of inhibition at 1000 µg/mL [7, 10] | zone of inhibition at 1000 µg/mL (Neurospora Crassa 846; [11]) | Size of Zone of Inhibition (*) (Candida albicans A-26 [4]; 1 mg/ml, * measurable zone of inhibition with regrowth of organism around disc) | ED50 (Candida albicans A-26 [5]) | minimal effective dose (Candida albicans A-26 [5]; [12]) | zone of inhibition at 1000 µg/mL ([7]; 48 h, 1 mg/ml suspension in methanol, 24-48 hours at 25-37° C., no regrowth mark, read-out: Size of Zone of Inhibition) | zone of inhibition at 1000 µg/mL (Neurospora Crassa 846; CRASSA846, 48 h, Neurospora Crassa 846, 1 mg/ml suspension in methanol, 24-48 hours at 25-37° C., no regrowth mark, read-out: Size of Zone of Inhibition)
1 | CCCCCCCCCCCC(=O)Nc1ccc(C(=O)N[C@H]2C[C@@H](O)[C@@H](O)NC(=O)[C@@H]3[C@@H](O)[C@@H](C)CN3C(=O)[C@H]([C@@H](C)O)NC(=O)[C@H]([C@H](O)[C@@H](O)c3ccc(O)cc3)NC(=O)[C@@H]3C[C@@H](O)CN3C(=O)[C@H]([C@@H](C)O)NC2=O)c(O)c1 [Example 66] (Lauroyl-[X8][Orn(4R-OH,5R-OH)]T[Hyp][hTyr(3S-OH,4S-OH)]T[Pro(3S-OH,4S-Me)]; lactam 2-C) | 0 ng/mL | < 0.039 μg/disc | 18 mm | 23 mm | > 40 mg/kg | 40 mg/kg | 1.25 μg/disc | – | – | – | – | – | – | –
2 | CCCCCCCCCCCC(=O)Nc1ccc(C(=O)N[C@H]2C[C@@H](O)[C@@H](O)NC(=O)[C@@H]3[C@@H](O)[C@@H](C)CN3C(=O)[C@H]([C@@H](C)O)NC(=O)[C@H]([C@H](O)[C@@H](O)c3ccc(O)cc3)NC(=O)[C@@H]3C[C@@H](O)CN3C(=O)[C@H]([C@@H](C)O)NC2=O)cc1C [Example 70] (Lauroyl-[X4][Orn(4R-OH,5R-OH)]T[Hyp][hTyr(3S-OH,4S-OH)]T[Pro(3S-OH,4S-Me)]; lactam 2-C) | 0 ng/mL | < 0.039 μg/disc | 19 mm | 26 mm | > 40 mg/kg | > 40 mg/kg | 20 μg/disc | 45 mm | 25 mm | – | – | – | – | –
3 | CCCCCCCC(=O)Nc1ccc(C(=O)N[C@H]2C[C@@H](O)[C@@H](O)NC(=O)[C@@H]3[C@@H](O)[C@@H](C)CN3C(=O)[C@H]([C@@H](C)O)NC(=O)[C@H]([C@H](O)[C@@H](O)c3ccc(O)cc3)NC(=O)[C@@H]3C[C@@H](O)CN3C(=O)[C@H]([C@@H](C)O)NC2=O)c(Cl)c1 [Example 86] (Octanoyl-[4Abz(2-Cl)][Orn(4R-OH,5R-OH)]T[Hyp][hTyr(3S-OH,4S-OH)]T[Pro(3S-OH,4S-Me)]; lactam 2-C) | – | – | – | – | 29 mg/kg | 10 mg/kg | – | – | – | – | – | – | – | –
4 | CCCCCCCCCCCC(=O)Nc1cc(C(=O)N[C@H]2C[C@@H](O)[C@@H](O)NC(=O)[C@@H]3[C@@H](O)[C@@H](C)CN3C(=O)[C@H]([C@@H](C)O)NC(=O)[C@H]([C@H](O)[C@@H](O)c3ccc(O)cc3)NC(=O)[C@@H]3C[C@@H](O)CN3C(=O)[C@H]([C@@H](C)O)NC2=O)ccc1C [Example 69] (Lauroyl-[X7][Orn(4R-OH,5R-OH)]T[Hyp][hTyr(3S-OH,4S-OH)]T[Pro(3S-OH,4S-Me)]; lactam 2-C) | 0 ng/mL | < 0.039 μg/disc | 17 mm | 16 mm | > 40 mg/kg | > 40 mg/kg | > 20 μg/disc | – | 30 mm | – | – | – | – | –
5 | CCCCCCC(=O)NCCCCCCCCCCC(=O)N[C@H]1C[C@@H](O)[C@@H](O)NC(=O)[C@@H]2[C@@H](O)[C@@H](C)CN2C(=O)[C@H]([C@@H](C)O)NC(=O)[C@H]([C@H](O)[C@@H](O)c2ccc(O)cc2)NC(=O)[C@@H]2C[C@@H](O)CN2C(=O)[C@H]([C@@H](C)O)NC1=O [Example 76] ({Heptanoyl-Aun}-[Orn(4R-OH,5R-OH)]T[Hyp][hTyr(3S-OH,4S-OH)]T[Pro(3S-OH,4S-Me)]; lactam 1-C) | 0 ng/mL | 0.625 μg/disc | – | 10 mm | > 40 mg/kg | > 40 mg/kg | – | 35 mm | 20 mm | – | – | – | – | –
6 | CCCCCCC(=O)Nc1ccc(C(=O)N[C@H]2C[C@@H](O)[C@@H](O)NC(=O)[C@@H]3[C@@H](O)[C@@H](C)CN3C(=O)[C@H]([C@@H](C)O)NC(=O)[C@H]([C@H](O)[C@@H](O)c3ccc(O)cc3)NC(=O)[C@@H]3C[C@@H](O)CN3C(=O)[C@H]([C@@H](C)O)NC2=O)cc1 [Example 78] ({Heptanoyl-4Abz}-[Orn(4R-OH,5R-OH)]T[Hyp][hTyr(3S-OH,4S-OH)]T[Pro(3S-OH,4S-Me)]; lactam 1-C) | – | 1.25 μg/disc | 20 mm | – | – | – | – | – | – | 45 mm | > 40 mg/kg | > 40 mg/kg | 14 mm | 25 mm
7 | CCCCCCCCCC(=O)Nc1ccc(C(=O)N[C@H]2C[C@@H](O)[C@@H](O)NC(=O)[C@@H]3[C@@H](O)[C@@H](C)CN3C(=O)[C@H]([C@@H](C)O)NC(=O)[C@H]([C@H](O)[C@@H](O)c3ccc(O)cc3)NC(=O)[C@@H]3C[C@@H](O)CN3C(=O)[C@H]([C@@H](C)O)NC2=O)cc1 [Example 79] ({Decanoyl-4Abz}-[Orn(4R-OH,5R-OH)]T[Hyp][hTyr(3S-OH,4S-OH)]T[Pro(3S-OH,4S-Me)]; lactam 1-C) | – | – | 17 mm | 24 mm | – | – | 0.625 μg/disc | – | 30 mm | – | 26 mg/kg | 5 mg/kg | – | –
8 | CCCCCCCCCCCC(=O)Nc1cccc(C(=O)N[C@H]2C[C@@H](O)[C@@H](O)NC(=O)[C@@H]3[C@@H](O)[C@@H](C)CN3C(=O)[C@H]([C@@H](C)O)NC(=O)[C@H]([C@H](O)[C@@H](O)c3ccc(O)cc3)NC(=O)[C@@H]3C[C@@H](O)CN3C(=O)[C@H]([C@@H](C)O)NC2=O)c1 [Example 65] ({Lauroyl-3Abz}-[Orn(4R-OH,5R-OH)]T[Hyp][hTyr(3S-OH,4S-OH)]T[Pro(3S-OH,4S-Me)]; lactam 1-C) | 0 ng/mL | < 0.039 μg/disc | 17 mm | 20 mm | > 40 mg/kg | > 40 mg/kg | 5.0 μg/disc | – | – | – | – | – | – | –
9 | CCCCCCCC(=O)Nc1cc(Cl)cc(C(=O)N[C@H]2C[C@@H](O)[C@@H](O)NC(=O)[C@@H]3[C@@H](O)[C@@H](C)CN3C(=O)[C@H]([C@@H](C)O)NC(=O)[C@H]([C@H](O)[C@@H](O)c3ccc(O)cc3)NC(=O)[C@@H]3C[C@@H](O)CN3C(=O)[C@H]([C@@H](C)O)NC2=O)c1Cl [Example 88] (Octanoyl-[X5][Orn(4R-OH,5R-OH)]T[Hyp][hTyr(3S-OH,4S-OH)]T[Pro(3S-OH,4S-Me)]; lactam 2-C) | – | – | – | – | – | – | – | – | – | – | > 40 mg/kg | 20 mg/kg | – | –
10 | CCCCCCCCCCCC(=O)Nc1cc(C(=O)N[C@H]2C[C@@H](O)[C@@H](O)NC(=O)[C@@H]3[C@@H](O)[C@@H](C)CN3C(=O)[C@H]([C@@H](C)O)NC(=O)[C@H]([C@H](O)[C@@H](O)c3ccc(O)cc3)NC(=O)[C@@H]3C[C@@H](O)CN3C(=O)[C@H]([C@@H](C)O)NC2=O)ccc1OC [Example 71] (Lauroyl-[X9][Orn(4R-OH,5R-OH)]T[Hyp][hTyr(3S-OH,4S-OH)]T[Pro(3S-OH,4S-Me)]; lactam 2-C) | – | – | 10 mm | 20 mm | > 40 mg/kg | > 40 mg/kg | – | 50 mm | 32 mm | – | – | – | – | –
